In patent EP4596574A1, “GLP-1/GCG/GIP TRIPLE-RECEPTOR AGONIST AND USE THEREOF” (Sunshine Lake Pharma Co., Ltd., priority 2022, dated 2024) one finds EC50 data, which are given here for six compounds.

pEC50: −log10 of the molar value. Starred links: 1 amine or outer side, 2 acyl side, 3 side chain; linkers in the order of their positions; H or OH if unused. Non-standard residues stand in square brackets, D forms with d. Residues, ends and D or L forms follow the SMILES beside them. Groups on a side chain read outwards from the residue. *: point of attachment. C20 diacid = O=C(O)CCCCCCCCCCCCCCCCCCC(=O)*; C18 diacid = O=C(O)CCCCCCCCCCCCCCCCC(=O)*; αMePhe(2-F) = C[C@](N)(Cc1ccccc1F)C(=O)O; γGlu = O=C(O)[C@H](CCC(=O)[*:2])N[*:1]; AEEA = NCCOCCOCC(=O)O; Aib = CC(C)(N)C(=O)O

What all share (format): cell-based
For assay [1], the target named is T1, GLP-1R (Homo sapiens, UniProt P43220).
T1 construct: expressed in transfected cells; host or cells: HEK293 (HEK293-GLP-1R)
The experiment in a line: In vitro cell activity, cAMP production in HEK293 cells expressing GLP-1R. Conditions: HEK293-GLP-1R cells, cAMP; read-out: GLP-1R (EC50). The method, boiled down: (§1)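 cAMP output read as 665/620 nm HTRF ratio after adding cAMP-d2 plus anti-cAMP cryptate and incubating 1 h at room temperature in the dark or overnight at 4 °C. Cells: HEK293 expressing human GLP-1R or GCGR, plated from a 4×10^5 cells/mL suspension. Four-parameter fit gives EC50.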
(In general: cAMP levels reflect the balance of adenylyl cyclase and phosphodiesterase activity.)

Assay [2] deals with T2, GCGR (Homo sapiens, UniProt P47871).
T2 construct: expressed in transfected cells; host or cells: HEK293 (HEK293-GCGR)
As to the kind of experiment: In vitro cell activity, cAMP production in HEK293 cells expressing GCGR. To be noted: HEK293-GCGR cells, cAMP; read-out: GCGR (EC50). The method, boiled down: as §1

The target in assay [3] is T3, GIPR (Homo sapiens, UniProt P48546).
T3 construct: expressed in transfected cells; host or cells: HEK293 (HEK293-GIPR)
T3 sequence (P48546 22-466): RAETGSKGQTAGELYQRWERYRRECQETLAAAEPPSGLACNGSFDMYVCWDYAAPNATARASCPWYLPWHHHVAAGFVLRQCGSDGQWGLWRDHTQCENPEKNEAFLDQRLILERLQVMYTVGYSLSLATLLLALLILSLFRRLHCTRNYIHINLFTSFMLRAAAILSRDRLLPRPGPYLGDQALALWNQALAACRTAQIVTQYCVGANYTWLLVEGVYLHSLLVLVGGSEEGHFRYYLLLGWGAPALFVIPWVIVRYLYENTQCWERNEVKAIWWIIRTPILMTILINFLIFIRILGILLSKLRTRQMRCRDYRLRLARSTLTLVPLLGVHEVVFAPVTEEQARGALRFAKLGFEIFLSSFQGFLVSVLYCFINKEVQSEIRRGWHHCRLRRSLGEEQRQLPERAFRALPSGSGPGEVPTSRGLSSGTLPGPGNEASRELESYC
As to the kind of experiment: In vitro cell activity, cAMP production in HEK293 cells expressing GIPR. To be noted: HEK293-GIPR cells, cAMP; read-out: GIPR (EC50). In short, it runs like this: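 HEK293 cells expressing human GIPR, thawed and diluted to 4×10^5 cells/mL, are stimulated with test compound. cAMP is measured by HTRF competition between cAMP-d2 and anti-cAMP cryptate. EC50 comes from a four-parameter nonlinear fit of signal ratio against concentration.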

T2 sequence (P47871 26-477, species assumed): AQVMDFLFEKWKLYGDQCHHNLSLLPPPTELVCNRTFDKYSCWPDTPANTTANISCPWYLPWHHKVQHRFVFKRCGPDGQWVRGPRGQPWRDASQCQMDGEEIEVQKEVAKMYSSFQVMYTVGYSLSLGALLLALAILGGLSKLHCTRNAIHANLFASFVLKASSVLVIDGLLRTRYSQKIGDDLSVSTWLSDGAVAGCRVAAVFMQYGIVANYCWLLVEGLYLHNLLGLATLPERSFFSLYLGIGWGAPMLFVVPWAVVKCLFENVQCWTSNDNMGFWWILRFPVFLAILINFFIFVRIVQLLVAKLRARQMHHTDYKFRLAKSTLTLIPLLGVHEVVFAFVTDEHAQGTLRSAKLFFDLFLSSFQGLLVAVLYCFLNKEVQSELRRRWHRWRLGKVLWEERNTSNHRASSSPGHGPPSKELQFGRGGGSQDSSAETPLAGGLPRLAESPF
T1 sequence (P43220 24-463, species assumed): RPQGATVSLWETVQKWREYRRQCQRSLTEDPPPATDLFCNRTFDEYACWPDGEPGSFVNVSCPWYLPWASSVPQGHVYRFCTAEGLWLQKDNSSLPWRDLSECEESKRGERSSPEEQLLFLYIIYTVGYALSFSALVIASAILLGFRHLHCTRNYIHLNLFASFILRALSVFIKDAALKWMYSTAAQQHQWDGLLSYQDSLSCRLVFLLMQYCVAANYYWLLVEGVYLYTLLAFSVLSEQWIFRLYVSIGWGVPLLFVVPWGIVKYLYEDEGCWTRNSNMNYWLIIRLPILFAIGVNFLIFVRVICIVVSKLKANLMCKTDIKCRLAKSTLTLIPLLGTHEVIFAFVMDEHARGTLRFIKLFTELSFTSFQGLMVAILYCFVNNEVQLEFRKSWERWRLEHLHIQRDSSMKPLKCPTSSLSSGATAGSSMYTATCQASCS

Usually pEC50 stands for the negative decadic logarithm of the EC50, by convention in mol/L. As for `CC[C@H](C)[C@H](NC(=O)[C@H](CCCCN)NC(=O)[C@H](CC(=O)O)NC(=O)[C@H](CCCCNC(=O)COCCOCCNC(=O)CC[C@H](NC(=O)CCCCCCCCCCCCCCCCCCC(=O)O)C(=O)O)NC(=O)[C@H](CC(C)C)NC(=O)[C@@H](NC(=O)[C@H](CO)NC(=O)[C@H](Cc1ccc(O)cc1)NC(=O)[C@H](CC(=O)O)NC(=O)[C@H](CO)NC(=O)[C@@H](NC(=O)[C@](C)(Cc1ccccc1F)NC(=O)[C@@H](NC(=O)CNC(=O)[C@H](CCC(N)=O)NC(=O)C(C)(C)NC(=O)[C@@H](N)Cc1ccc(O)cc1)[C@@H](C)O)[C@@H](C)O)[C@@H](C)CC)C(=O)N[C@@H](C)C(=O)N[C@@H](CCC(N)=O)C(=O)NC(C)(C)C(=O)N[C@@H](C)C(=O)N[C@@H](Cc1ccccc1)C(=O)N[C@H](C(=O)N[C@@H](CCC(=O)O)C(=O)N[C@@H](Cc1ccc(O)cc1)C(=O)N[C@@H](CC(C)C)C(=O)N[C@@H](CC(C)C)C(=O)N[C@@H](C)C(=O)NCC(=O)NCC(=O)N1CCC[C@H]1C(=O)N[C@@H](CO)C(=O)N[C@@H](CO)C(=O)NCC(=O)N[C@@H](C)C(=O)N1CCC[C@H]1C(=O)N1CCC[C@H]1C(=O)N1CCC[C@H]1C(=O)N[C@@H](CO)C(N)=O)[C@@H](C)CC` [HEC-PT138] (H-Y[Aib]QGT[αMePhe(2-F)]TSDYSILK([AEEA-γGlu-C20 diacid])DKIAQ[Aib]AFIEYLLAGGPSSGAPPPS-NH2), the pEC50 was 9.57 in assay [1], 9.76 in assay [2] and 10.19 in assay [3].

For `CC[C@H](C)[C@H](NC(=O)[C@H](CO)NC(=O)[C@H](Cc1ccc(O)cc1)NC(=O)[C@H](CC(=O)O)NC(=O)[C@H](CO)NC(=O)[C@@H](NC(=O)[C@](C)(Cc1ccccc1F)NC(=O)[C@@H](NC(=O)CNC(=O)[C@H](CCC(N)=O)NC(=O)C(C)(C)NC(=O)[C@@H](N)Cc1ccc(O)cc1)[C@@H](C)O)[C@@H](C)O)C(=O)N[C@@H](CC(C)C)C(=O)N[C@@H](CCCCNC(=O)COCCOCCNC(=O)CC[C@H](NC(=O)CCCCCCCCCCCCCCCCC(=O)O)C(=O)O)C(=O)N[C@@H](CC(=O)O)C(=O)N[C@@H](CCCNC(=N)N)C(=O)N[C@@H](CCCNC(=N)N)C(=O)N[C@@H](C)C(=O)N[C@@H](CCC(N)=O)C(=O)N[C@@H](CCC(N)=O)C(=O)N[C@@H](C)C(=O)N[C@@H](Cc1ccccc1)C(=O)N[C@H](C(=O)N[C@@H](CCC(=O)O)C(=O)N[C@@H](Cc1ccc(O)cc1)C(=O)N[C@@H](CC(C)C)C(=O)N[C@@H](CC(C)C)C(=O)N[C@@H](C)C(=O)NCC(=O)NCC(=O)N1CCC[C@H]1C(=O)N[C@@H](CO)C(=O)N[C@@H](CO)C(=O)NCC(=O)N[C@@H](C)C(=O)N1CCC[C@H]1C(=O)N1CCC[C@H]1C(=O)N1CCC[C@H]1C(=O)N[C@@H](CO)C(=O)O)C(C)C` [HEC-PT148] (H-Y[Aib]QGT[αMePhe(2-F)]TSDYSILK([AEEA-γGlu-C18 diacid])DRRAQQAFVEYLLAGGPSSGAPPPS-OH), the pEC50 is 10.13 in assay [1], 9.79 in assay [2] and 9.51 in assay [3].

Regarding `CC[C@H](C)[C@H](NC(=O)[C@H](Cc1ccccc1)NC(=O)[C@H](C)NC(=O)[C@H](CCCNC(=N)N)NC(=O)[C@H](CCC(N)=O)NC(=O)[C@H](C)NC(=O)[C@H](CCCCNC(=O)COCCOCCNC(=O)CC[C@H](NC(=O)CCCCCCCCCCCCCCCCCCC(=O)O)C(=O)O)NC(=O)[C@H](CCC(=O)O)NC(=O)[C@H](CC(=O)O)NC(=O)[C@H](CC(C)C)NC(=O)[C@H](CC(C)C)NC(=O)[C@@H](NC(=O)[C@H](CO)NC(=O)[C@H](Cc1ccc(O)cc1)NC(=O)[C@H](CC(=O)O)NC(=O)[C@H](CO)NC(=O)[C@@H](NC(=O)[C@](C)(Cc1ccccc1F)NC(=O)[C@@H](NC(=O)CNC(=O)[C@H](Cc1c[nH]cn1)NC(=O)C(C)(C)NC(=O)[C@@H](N)Cc1ccc(O)cc1)[C@@H](C)O)[C@@H](C)O)[C@@H](C)CC)C(=O)N[C@@H](CCC(=O)O)C(=O)N[C@@H](Cc1ccc(O)cc1)C(=O)N[C@@H](CC(C)C)C(=O)N[C@@H](CC(C)C)C(=O)N[C@@H](C)C(=O)NCC(=O)NCC(=O)N1CCC[C@H]1C(=O)N[C@@H](CO)C(=O)N[C@@H](CO)C(=O)NCC(=O)N[C@@H](C)C(=O)N1CCC[C@H]1C(=O)N1CCC[C@H]1C(=O)N1CCC[C@H]1C(=O)N[C@@H](CO)C(=O)O` [HEC-PT83], the figures for the pEC50 in assay [1], in assay [2] and in assay [3] were 9.59, 9.51 and 9.80, respectively.

As to `CC[C@H](C)[C@H](NC(=O)[C@H](CC(C)C)NC(=O)[C@H](Cc1c[nH]c2ccccc12)NC(=O)[C@H](CCC(=O)O)NC(=O)[C@@H](NC(=O)[C@H](Cc1ccccc1)NC(=O)[C@H](CCC(=O)O)NC(=O)[C@H](CCCCNC(=O)COCCOCCNC(=O)COCCOCCNC(=O)CC[C@H](NC(=O)CCCCCCCCCCCCCCCCCCC(=O)O)C(=O)O)NC(=O)[C@H](C)NC(=O)[C@H](C)NC(=O)[C@H](CCCNC(=N)N)NC(=O)[C@H](CCC(=O)O)NC(=O)[C@H](CC(=O)O)NC(=O)[C@H](CC(C)C)NC(=O)[C@H](CC(C)C)NC(=O)[C@@H](NC(=O)[C@H](CO)NC(=O)[C@H](Cc1ccc(O)cc1)NC(=O)[C@H](CC(=O)O)NC(=O)[C@H](CO)NC(=O)[C@@H](NC(=O)[C@](C)(Cc1ccccc1F)NC(=O)[C@@H](NC(=O)CNC(=O)[C@H](CCC(N)=O)NC(=O)C(C)(C)NC(=O)[C@@H](N)Cc1ccc(O)cc1)[C@@H](C)O)[C@@H](C)O)[C@@H](C)CC)[C@@H](C)CC)C(=O)N[C@@H](C)C(=O)NCC(=O)NCC(=O)N1CCC[C@H]1C(=O)N[C@@H](CO)C(=O)N[C@@H](CO)C(=O)NCC(=O)N[C@@H](C)C(=O)N1CCC[C@H]1C(=O)N1CCC[C@H]1C(=O)N1CCC[C@H]1C(=O)N[C@@H](CO)C(=O)O` [HEC-PT71] (H-Y[Aib]QGT[αMePhe(2-F)]TSDYSILLDERAAK([AEEA-AEEA-γGlu-C20 diacid])EFIEWLIAGGPSSGAPPPS-OH), the pEC50 in assay [1] was 9.47; in assay [2], 8.27; in assay [3], 9.33.

Consider `CC[C@H](C)[C@H](NC(=O)[C@H](CO)NC(=O)[C@H](Cc1ccc(O)cc1)NC(=O)[C@H](CC(=O)O)NC(=O)[C@H](CO)NC(=O)[C@@H](NC(=O)[C@](C)(Cc1ccccc1F)NC(=O)[C@@H](NC(=O)CNC(=O)[C@H](CCC(N)=O)NC(=O)C(C)(C)NC(=O)[C@@H](N)Cc1ccc(O)cc1)[C@@H](C)O)[C@@H](C)O)C(=O)N[C@@H](CC(C)C)C(=O)N[C@@H](CC(C)C)C(=O)N[C@@H](CC(=O)O)C(=O)N[C@@H](CCC(=O)O)C(=O)N[C@@H](CCCCNC(=O)COCCOCCNC(=O)CC[C@H](NC(=O)CCCCCCCCCCCCCCCCC(=O)O)C(=O)O)C(=O)N[C@@H](CCCNC(=N)N)C(=O)N[C@@H](CCC(N)=O)C(=O)NC(C)(C)C(=O)N[C@@H](CCC(=O)O)C(=O)N[C@@H](Cc1ccccc1)C(=O)N[C@H](C(=O)N[C@@H](CCC(=O)O)C(=O)N[C@@H](Cc1c[nH]c2ccccc12)C(=O)N[C@@H](CC(C)C)C(=O)N[C@@H](CC(C)C)C(=O)N[C@@H](C)C(=O)NCC(=O)NCC(=O)N1CCC[C@H]1C(=O)N[C@@H](CO)C(=O)N[C@@H](CO)C(=O)NCC(=O)N[C@@H](C)C(=O)N1CCC[C@H]1C(=O)N1CCC[C@H]1C(=O)N1CCC[C@H]1C(=O)N[C@@H](CO)C(N)=O)[C@@H](C)CC` [HEC-PT110], for which the negative logarithm of the EC50 (pEC50) in assay [1] is 9.94; in assay [2], 8.88; in assay [3], 10.35.

In the case of `CC[C@H](C)[C@H](NC(=O)[C@H](Cc1ccccc1)NC(=O)[C@H](CC(=O)O)NC(=O)[C@H](CCCNC(=N)N)NC(=O)[C@H](CCC(N)=O)NC(=O)[C@H](C)NC(=O)[C@H](CCCCNC(=O)COCCOCCNC(=O)CC[C@H](NC(=O)CCCCCCCCCCCCCCCCCCC(=O)O)C(=O)O)NC(=O)[C@H](CCC(=O)O)NC(=O)[C@H](CC(=O)O)NC(=O)[C@H](CC(C)C)NC(=O)[C@H](CC(C)C)NC(=O)[C@@H](NC(=O)[C@H](CO)NC(=O)[C@H](Cc1ccc(O)cc1)NC(=O)[C@H](CC(=O)O)NC(=O)[C@H](CO)NC(=O)[C@@H](NC(=O)[C@](C)(Cc1ccccc1F)NC(=O)[C@@H](NC(=O)CNC(=O)[C@H](CCC(N)=O)NC(=O)C(C)(C)NC(=O)[C@@H](N)Cc1ccc(O)cc1)[C@@H](C)O)[C@@H](C)O)[C@@H](C)CC)C(=O)N[C@@H](CCC(=O)O)C(=O)N[C@@H](Cc1c[nH]c2ccccc12)C(=O)N[C@@H](CC(C)C)C(=O)N[C@@H](CC(C)C)C(=O)N[C@@H](CCC(=O)O)C(=O)NCC(=O)NCC(=O)N1CCC[C@H]1C(=O)N[C@@H](CO)C(=O)N[C@@H](CO)C(=O)NCC(=O)N[C@@H](C)C(=O)N1CCC[C@H]1C(=O)N1CCC[C@H]1C(=O)N1CCC[C@H]1C(=O)N[C@@H](CO)C(=O)O` [HEC-PT64], the pEC50 in assay [1] was 9.22; in assay [2], 8.45; in assay [3] it was 9.60.
